Reference: US20240150293A1, “SPIROCYCLOHEXANE DERIVATIVES, PHARMACEUTICAL COMPOSITIONS CONTAINING THEM AND THEIR USES AS ANTI-APOPTOTIC INHIBITORS” (LES LABORATOIRES SERVIER, priority 2021, published 2024)
Like-named read-outs stand apart in the source and are kept apart here.

Tests used:
[1] = molecular target: Cy5-labelled Mcl1 (amino acids 171-321) C286S protein (UniProtKB Q07820) (Homo sapiens (Human), UniProt Q07820, C286S); assay: Inhibition of Mcl-1 by the fluorescence quenching assay (Example A, Method B); format: binding
Cy5-labelled Mcl1 (amino acids 171-321) C286S protein, sequence (Q07820 171-321 C286S): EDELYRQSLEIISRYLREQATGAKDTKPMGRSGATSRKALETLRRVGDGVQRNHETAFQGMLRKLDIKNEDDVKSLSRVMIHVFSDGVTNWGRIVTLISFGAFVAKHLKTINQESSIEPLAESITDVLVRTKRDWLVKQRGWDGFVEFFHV
Summary of the method: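 Eleven-point compound series incubated 2 h at room temperature with 1 nM Cy5-tagged protein and quencher-labelled PUMA peptide at 10, 20 or 400 nM in HEPES/NaCl/Tween 20, pH 7.4, 5% DMSO. IC50 for 50% fluorescence increase by 4-parameter fit, then Ki derived (complete cKi or estimated eKi).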

NCI-H929 cell lines = assay: In vitro cytotoxicity, CellTiter-Glo (CTG) assay (Example B, Method B); format: cell-based; conditions: NCI-H929 cells, 48 h incubation, read-out: C50
Summary of the method: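 ATP-based luminescence (CellTiter-Glo) after 48 h incubation at 37° C., 5% CO2 gave NCI-H929 viability. Eleven concentrations tested, highest final 30 μM, dispensed acoustically from 10 mM DMSO stocks; C50 defined as concentration reaching 50% viability.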

| SMILES | Ki [1] [nM] | Ki ([1]; Ki determined from IC50) [nM] | IC50 (NCI-H929 cell lines; Homo sapiens, NCI-H929, 48 h) [nM] | IC50 (NCI-H929 cell lines) [nM] |
| --- | --- | --- | --- | --- |
| C[C@@H](COc1ccnc2c1[C@H](C)CC[C@H]2F)C[C@H]1Cc2cc3c(cc2[C@]12CC[C@@](Nc1cccc(Cl)c1)(C(=O)O)CC2)OCO3 [Example 961, (1r,4S,6′S)-4-(3-chloroanilino)-6′-[(2R)-3-{[(5R,8R)-8-fluoro-5-methyl-5,6,7,8-tetrahydroquinolin-4-yl]oxy}-2-methylpropyl]-6′,7′-dihydro-2′H-spiro[cyclohexane-1,5′-indeno[5,6-d][1,3]dioxole]-4-carboxylic acid] | 0.0308 |  | 98.8 |  |
| C[C@@H]1CCCc2nccc(OC[C@@H](C[C@H]3Cc4ccccc4[C@]34CC[C@@](Nc3cccc(Cl)c3)(C(=O)O)CC4)c3ccccc3)c21 [Example 797, (1r,2′S,4S)-4-(3-chloroanilino)-2′-[(2S)-3-{[(5R)-5-methyl-5,6,7,8-tetrahydroquinolin-4-yl]oxy}-2-phenylpropyl]-2′,3′-dihydrospiro[cyclohexane-1,1′-indene]-4-carboxylic acid] | 0.259 |  | 251 |  |
| CC(C)[C@@H]1CCOc2cc3c(cc2O1)[C@]1(CC[C@@](Nc2cccc(Cl)c2)(C(=O)O)CC1)[C@@H](C[C@@H](C)COc1ccnc2c1[C@H](C)CCC2)C3 [Example 998, (1r,4S,4'S,8′S)-4-(3-chloroanilino)-8′-[(2R)-2-methyl-3-{[(5R)-5-methyl-5,6,7,8-tetrahydroquinolin-4-yl]oxy}propyl]-4′-(propan-2-yl)-3′,4′,8′,9′-tetrahydro-2′H-spiro[cyclohexane-1,7′-indeno[5,6-b][1,4]dioxepine]-4-carboxylic acid] | 0.106 |  | 63.1 |  |
| COCC(=O)OC(C)OC(=O)[C@]1(Nc2cccc(Cl)c2)CC[C@@]2(CC1)c1cc3c(cc1C[C@@H]2C[C@@H](C)COc1ccnc2c1[C@H](C)CCC2)OCO3 (stereo partly drawn) [Example 941, 1-[(methoxyacetyl)oxy]ethyl (1r,4S,6′S)-4-(3-chloroanilino)-6′-[(2R)-2-methyl-3-{[(5R)-5-methyl-5,6,7,8-tetrahydroquinolin-4-yl]oxy}propyl]-6′,7′-dihydro-2′H-spiro[cyclohexane-1,5′-indeno[5,6-d][1,3]dioxole]-4-carboxylate] | 3.94 |  | 46.2 |  |
| CC(OC(=O)N1CCOCC1)OC(=O)[C@]1(Nc2cccc(Cl)c2)CC[C@@]2(CC1)c1cc3c(cc1C[C@@H]2C[C@@H](C)COc1ccnc2c1[C@H](C)CCC2)OCO3 (stereo partly drawn) [Example 948, 1-({(1r,4S,6′S)-4-(3-chloroanilino)-6′-[(2R)-2-methyl-3-{[(5R)-5-methyl-5,6,7,8-tetrahydroquinolin-4-yl]oxy}propyl]-6′,7′-dihydro-2′H-spiro[cyclohexane-1,5′-indeno[5,6-d][1,3]dioxole]-4-carbonyl}oxy)ethyl morpholine-4-carboxylate] | 64.9 |  | 7120 |  |
| Cc1ccc2c(c1)CN(C[C@@H](C)COc1ccnc3c1[C@H](C)CCC3)[C@]21CC[C@](Nc2cccc(Cl)c2)(C(=O)O)CC1 [Example 55, (1s,4S)-4-(3-chloroanilino)-5′-methyl-2′-[(2R)-2-methyl-3-{[(5R)-5-methyl-5,6,7,8-tetrahydroquinolin-4-yl]oxy}propyl]-2′,3′-dihydrospiro[cyclohexane-1,1′-isoindole]-4-carboxylic acid] |  | 0.104 | 181 |  |
| COc1cc2c(cc1Cl)CN(C[C@@H](C)COc1ccnc3c1[C@H](C)CCC3)[C@]21CC[C@](Nc2cccc(Cl)c2)(C(=O)O)CC1 [Example 46, (1s,4S)-5′-chloro-4-(3-chloroanilino)-6′-methoxy-2′-[(2R)-2-methyl-3-{[(5R)-5-methyl-5,6,7,8-tetrahydroquinolin-4-yl]oxy}propyl]-2′,3′-dihydrospiro[cyclohexane-1,1′-isoindole]-4-carboxylic acid] |  | 0.255 | 262 |  |
| CC(OC(=O)OC1CCCC1)OC(=O)[C@]1(Nc2cccc(Cl)c2)CC[C@@]2(CC1)c1cc3c(cc1C[C@@H]2C[C@@H](C)COc1ccnc2c1[C@H](C)CCC2)OCO3 (stereo partly drawn) [Example 945, 1-{[(cyclopentyloxy)carbonyl]oxy}ethyl (1r,4S,6′S)-4-(3-chloroanilino)-6′-[(2R)-2-methyl-3-{[(5R)-5-methyl-5,6,7,8-tetrahydroquinolin-4-yl]oxy}propyl]-6′,7′-dihydro-2′H-spiro[cyclohexane-1,5′-indeno[5,6-d][1,3]dioxole]-4-carboxylate] | 162 |  | 24700 |  |

More lines, main results first:

| Ki [1] [nM] | Ki ([1]; Ki determined from IC50) [nM] | SMILES | IC50 (NCI-H929 cell lines; Homo sapiens, NCI-H929, 48 h) [nM] | IC50 (NCI-H929 cell lines) [nM] |
| --- | --- | --- | --- | --- |
| 0.0256 |  | C[C@@H](COc1ccnc2c1[C@H](C)CCC2)C[C@H]1Cc2cc3c(cc2[C@]12CC[C@@](Nc1cccc(Cl)c1)(C(=O)O)CC2)CCO3 [Example 851, (1r,4S,6′S)-4-(3-chloroanilino)-6′-[(2R)-2-methyl-3-{[(5R)-5-methyl-5,6,7,8-tetrahydroquinolin-4-yl]oxy}propyl]-2′,3′,6′,7′-tetrahydrospiro[cyclohexane-1,5′-indeno[5,6-b]furan]-4-carboxylic acid] | 34.9 |  |
| 0.0267 |  | CC1Oc2cc3c(cc2O1)[C@]1(CC[C@@](Nc2cccc(Cl)c2)(C(=O)O)CC1)[C@@H](C[C@@H](C)COc1ccnc2c1[C@H](C)CCC2)C3 (single isomer, unassigned) [Example 966] |  | 48.3 |
| 0.0343 |  | C[C@@H](COc1ccnc2c1[C@H](C)CCC2)C[C@H]1Cc2cc3c(cc2[C@]12CC[C@@](Nc1cccc(Cl)c1)(C(=O)O)CC2)OC(C)(C)O3 [Example 848, (1r,4S,6′S)-4-(3-chloroanilino)-2′,2′-dimethyl-6′-[(2R)-2-methyl-3-{[(5R)-5-methyl-5,6,7,8-tetrahydroquinolin-4-yl]oxy}propyl]-6′,7′-dihydro-2′H-spiro[cyclohexane-1,5′-indeno[5,6-d][1,3]dioxole]-4-carboxylic acid] | 48.6 |  |
| 0.293 |  | C[C@@H](COc1ccnc2c1[C@H](C)CCC2)C[C@H]1Cc2cc3c(cc2[C@]12CC[C@@](Nc1ccc(Cl)c(Cl)c1)(C(=O)O)CC2)OCO3 [Example 887, (1r,4S,6′S)-4-(3,4-dichloroanilino)-6′-[(2R)-2-methyl-3-{[(5R)-5-methyl-5,6,7,8-tetrahydroquinolin-4-yl]oxy}propyl]-6′,7′-dihydro-2′H-spiro[cyclohexane-1,5′-indeno[5,6-d][1,3]dioxole]-4-carboxylic acid] | 151 |  |
| 0.0896 |  | C[C@@H](COc1ccnc2c1[C@H](C)CCC2)C[C@H]1Cc2cc3c(cc2[C@]12CC[C@@](Nc1cccc(Cl)c1)(C(=O)O)CC2)CCC3 [Example 852, (1r,2′S,4S)-4-(3-chloroanilino)-2′-[(2R)-2-methyl-3-{[(5R)-5-methyl-5,6,7,8-tetrahydroquinolin-4-yl]oxy}propyl]-3′,5′,6′,7′-tetrahydro-2′H-spiro[cyclohexane-1,1′-[s]indacene]-4-carboxylic acid] | 235 |  |
| 0.162 |  | CC(C)Oc1cc2c(cc1Cl)C[C@H](C[C@@H](C)COc1ccnc3c1[C@H](C)CCC3)[C@]21CC[C@](Nc2cccc(Cl)c2)(C(=O)O)CC1 [Example 819, (1r,2′S,4S)-5′-chloro-4-(3-chloroanilino)-2′-[(2R)-2-methyl-3-{[(5R)-5-methyl-5,6,7,8-tetrahydroquinolin-4-yl]oxy}propyl]-6′-[(propan-2-yl)oxy]-2′,3′-dihydrospiro[cyclohexane-1,1′-indene]-4-carboxylic acid] | 151 |  |
| 0.0163 |  | C[C@@H](COc1ccnc2c1[C@H](C)CCC2)C[C@H]1Cc2cc3c(cc2[C@]12CC[C@@](Nc1cccc(Cl)c1)(C(=O)O)CC2)O[C@H](C)[C@@H](C)O3 [Example 976, (1r,2′R,3′R,4S,7′S)-4-(3-chloroanilino)-2′,3′-dimethyl-7′-[(2R)-2-methyl-3-{[(5R)-5-methyl-5,6,7,8-tetrahydroquinolin-4-yl]oxy}propyl]-2′,3′,7′,8′-tetrahydrospiro[cyclohexane-1,6′-indeno[5,6-b][1,4]dioxine]-4-carboxylic acid] | 72.5 |  |
| 0.246 |  | C[C@@H](COc1ccnc2c1[C@H](C)CCC2)C[C@H]1Cc2ccc(-c3ccn(C)c3)cc2[C@]12CC[C@@](Nc1cccc(Cl)c1)(C(=O)O)CC2 [Example 883, (1r,2′S,4S)-4-(3-chloroanilino)-2′-[(2R)-2-methyl-3-{[(5R)-5-methyl-5,6,7,8-tetrahydroquinolin-4-yl]oxy}propyl]-6′-(1-methyl-1H-pyrrol-3-yl)-2′,3′-dihydrospiro[cyclohexane-1,1′-indene]-4-carboxylic acid] | 133 |  |
|  | 0.762 | C[C@@H](COc1ccnc2c1[C@H](C)CCC2)CN1Cc2cc(Cl)ccc2[C@]12CC[C@@](Nc1cccc(Cl)c1)(C(=O)O)CC2 [Example 56, (1s,4S)-5′-chloro-4-(3-chloroanilino)-2′-[(2R)-2-methyl-3-{[(5R)-5-methyl-5,6,7,8-tetrahydroquinolin-4-yl]oxy}propyl]-2′,3′-dihydrospiro[cyclohexane-1,1′-isoindole]-4-carboxylic acid] | 151 |  |
| 0.644 |  | C[C@@H](COc1ccnc2c1[C@H](C)CCC2)CC1Cc2c(Cl)c(Cl)ccc2[C@]12CC[C@@](Nc1cccc(Cl)c1)(C(=O)O)CC2 (single isomer, unassigned) [Example 751] | 279 |  |
| 0.0188 |  | CC(O)c1ccc2c(c1)[C@]1(CC[C@@](Nc3cccc(Cl)c3)(C(=O)O)CC1)[C@@H](C[C@@H](C)COc1ccnc3c1[C@H](C)CCC3)C2 (single isomer, unassigned) [Example 860] |  | 93 |
